Converted amounts (≈) assume the structure as drawn.
Experiments:
Enterococcus sp. = assay: in vitro antibacterial evaluation, MIC by broth dilution; type: cell-based; conditions: broth dilution, 18 hours at 35° C.
Procedure, shortened: (§1)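 Following National Committee for Clinical Laboratory Standards recommendations (M7-A2), susceptibility was measured by dilution in Muller-Hinton II […]. Bacteria were seeded at 5×10^5 CFU/mL against compound concentrations from 64 down to 0.06 μg/mL.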

Staphylococcus sp. = assay: as above; type: cell-based; conditions: broth dilution, 18 hours at 35° C.
Procedure, shortened: as §1

Streptococcus sp. = assay: as above; type: cell-based; conditions: broth dilution, 18 hours at 35° C.
Procedure, shortened: as §1

[1] = tested on: Staphylococcus aureus-SMITH (GC 4543); assay: acute lethal infection in mice; type: in vivo; conditions: acute lethal infection, female CD-1 mice, intraperitoneal challenge, intravenous 30 min. after infection, 7 day survival
Procedure, shortened: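 Survival at 7 days, pooled from three independent tests, yields ED50 values. Treatment is intravenous, 30 min after ip infection of female CD-1 mice, using an inoculum lethal to untreated controls within 24-48 hr.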

[2] = anatomic pathology (histopathology of heart and kidney) in mice; type: in vivo; conditions: CD-1 mice, 20 mg/kg intravenously daily for 9 days, necropsy day 10, microscopic histopathology
Method: Samples of tissues from necropsied mice were formalin-fixed, paraffin-embedded, sectioned, stained with hematoxylin and eosin, and examined microscopically. Histopathologic findings were recorded. These findings were subjectively graded on a scale corresponding to slight, mild, moderate, marked and severe as compared to untreated controls.

Escherichia coli = assay: in vitro antibacterial evaluation, MIC by broth dilution; type: cell-based; conditions: 18 hours at 35° C.
Procedure, shortened: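 Broth dilution in Muller-Hinton II medium per NCCLS standard M7-A2, with an inoculum of 5×10^5 CFU/mL and antibiotic tested over 64-0.06 μg/mL. MIC was taken as the lowest concentration inhibiting visible growth.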

With `CC(c1ccccc1)C1NC(=O)CNC(=O)C(CO)NC(=O)C(C(O)C2CN(Cc3ccc4ccccc4c3)C(=N)N2C2OC(CO)C(O)C(O)C2O)NC(=O)C(C(O)C2CNC(=N)N2)NC(=O)C(Cc2ccc(OC3OC(CO)C(OC4OC5COC6(OC5C(O)C4O)C4CC5CC(C4)CC6C5)C(O)C3O)cc2)NC1=O` (stereo not drawn) [Example 78, Cyclo[glycyl-β-methylphenylalanyl-O-[4-O-[4,6-O-(2-adamantylidene)hexopyranosyl]hexopyranosyl]tyrosyl-3-(2-iminoimidazolidin-4-yl)seryl-3-[3-hexopyranosyl-2-imino-1-(2-naphthylmethyl)-imidazolidin-4-yl]serylseryl]] as the molecule, how does the “MIC Enterococcus avium (GC 4558)” value (Enterococcus sp.; Enterococcus avium (GC 4558)) read?
The value was 4 µg/mL (≈ 2.55 µM).

What about the “MIC Enterococcus faecalis (ATCC 29212)” value (Enterococcus sp.; Enterococcus faecalis (ATCC 29212)) of the same molecule?
The value was 8 µg/mL (≈ 5.1 µM).

And the “MIC Enterococcus faecalis (GC 4552)” value (Enterococcus sp.; Enterococcus faecalis (GC 4552))?
Its value is 8 µg/mL (≈ 5.1 µM).

And the “MIC Enterococcus faecalis (GC 4553)” value (Enterococcus sp.; Enterococcus faecalis (GC 4553))?
The value was 8 µg/mL (≈ 5.1 µM).

What about the “MIC Enterococcus faecalis (GC 4554)” value (Enterococcus sp.; Enterococcus faecalis (GC 4554)) of the same molecule?
Its value is 16 µg/mL (≈ 10.2 µM).

And the “MIC Enterococcus faecalis (GC 6189)” value (Enterococcus sp.; Enterococcus faecalis (GC 6189))?
Its value is 16 µg/mL (≈ 10.2 µM).

What about the “MIC Enterococcus faecium (GC 2243)” value (Enterococcus sp.; Enterococcus faecium (GC 2243)) of the same molecule?
The value was 8 µg/mL (≈ 5.1 µM).

What about the “MIC Enterococcus faecium (GC 4556)” value (Enterococcus sp.; Enterococcus faecium (GC 4556)) of the same molecule?
The value was 16 µg/mL (≈ 10.2 µM).

What about the “MIC Enterococcus faecium (GC 4557)” value (Enterococcus sp.; Enterococcus faecium (GC 4557)) of the same molecule?
The value was 2 µg/mL (≈ 1.28 µM).

And the “MIC Enterococcus avium (GC 4558)” value (Enterococcus sp.)?
The value was 4 µg/mL (≈ 2.55 µM).

And the “MIC Enterococcus faecalis (ATCC 29212)” value (Enterococcus sp.)?
The value was 8 µg/mL (≈ 5.1 µM).

What about the “MIC Enterococcus faecalis (GC 2242)” value (Enterococcus sp.) of the same molecule?
The value was 16 µg/mL (≈ 10.2 µM).

And the “MIC Enterococcus faecalis (GC 2691)” value (Enterococcus sp.)?
The value was 16 µg/mL (≈ 10.2 µM).

And the “MIC Enterococcus faecalis (GC 3059)” value (Enterococcus sp.)?
The value was 16 µg/mL (≈ 10.2 µM).

And the “MIC Enterococcus faecalis (GC 4552)” value (Enterococcus sp.)?
Its value is 8 µg/mL (≈ 5.1 µM).

What about the “MIC Enterococcus faecalis (GC 4553)” value (Enterococcus sp.) of the same molecule?
Its value is 8 µg/mL (≈ 5.1 µM).

What about the “MIC Enterococcus faecalis (GC 4554)” value (Enterococcus sp.) of the same molecule?
Its value is 16 µg/mL (≈ 10.2 µM).

And the “MIC Enterococcus faecalis (GC 6189)” value (Enterococcus sp.)?
Its value is 16 µg/mL (≈ 10.2 µM).

What about the “MIC Enterococcus faecium (GC 2243)” value (Enterococcus sp.) of the same molecule?
The value was 8 µg/mL (≈ 5.1 µM).

What about the “MIC Enterococcus faecium (GC 4556)” value (Enterococcus sp.) of the same molecule?
The value was 16 µg/mL (≈ 10.2 µM).

And the “MIC Enterococcus faecium (GC 4557)” value (Enterococcus sp.)?
Its value is 2 µg/mL (≈ 1.28 µM).

And the “MIC Enterococcus faecalis (GC 2242)” value (Enterococcus sp.; strain GC 2242)?
The value was 16 µg/mL (≈ 10.2 µM).

And the “MIC Enterococcus faecalis (GC 2691)” value (Enterococcus sp.; strain GC 2691)?
Its value is 16 µg/mL (≈ 10.2 µM).

And the “MIC Enterococcus faecalis (GC 3059)” value (Enterococcus sp.; strain GC 3059)?
The value was 16 µg/mL (≈ 10.2 µM).

What about the “MIC Staphylococcus aureus (ATCC 29213)” value (Staphylococcus sp.; strain ATCC 29213) of the same molecule?
Its value is 8 µg/mL (≈ 5.1 µM).

What about the “MIC Staphylococcus aureus (GC 1131)” value (Staphylococcus sp.; strain GC 1131) of the same molecule?
The value was 8 µg/mL (≈ 5.1 µM).

What about the “MIC Staphylococcus aureus (GC 3051)” value (Staphylococcus sp.; strain GC 3051) of the same molecule?
Its value is 8 µg/mL (≈ 5.1 µM).

And the “MIC Staphylococcus aureus (GC 3053)” value (Staphylococcus sp.; strain GC 3053)?
The value was 8 µg/mL (≈ 5.1 µM).

And the “MIC Staphylococcus aureus (GC 4541)” value (Staphylococcus sp.; strain GC 4541)?
The value was 4 µg/mL (≈ 2.55 µM).

And the “MIC Staphylococcus aureus (GC 4542)” value (Staphylococcus sp.; strain GC 4542)?
Its value is 8 µg/mL (≈ 5.1 µM).

And the “MIC Staphylococcus aureus-SMITH (GC 4543)” value (Staphylococcus sp.; strain GC 4543)?
The value was 4 µg/mL (≈ 2.55 µM).

And the “MIC Staphylococcus aureus (GC 4544)” value (Staphylococcus sp.; strain GC 4544)?
The value was 8 µg/mL (≈ 5.1 µM).

And the “MIC Staphylococcus aureus (GC 4545)” value (Staphylococcus sp.; strain GC 4545)?
The value was 8 µg/mL (≈ 5.1 µM).

And the “MIC Staphylococcus haemolyticus (GC 4546)” value (Staphylococcus sp.; strain GC 4546)?
The value was 4 µg/mL (≈ 2.55 µM).

And the “MIC Coagulase Negative Staphylococcus (GC 4547)” value (Staphylococcus sp.; strain GC 4547)?
The value was 4 µg/mL (≈ 2.55 µM).

And the “MIC Coagulase Negative Staphylococcus (GC 4548)” value (Staphylococcus sp.; strain GC 4548)?
Its value is 4 µg/mL (≈ 2.55 µM).

And the “MIC Coagulase Negative Staphylococcus (GC 4549)” value (Staphylococcus sp.; strain GC 4549)?
The value was 8 µg/mL (≈ 5.1 µM).

And the “MIC Coagulase Negative Staphylococcus (GC 4551)” value (Staphylococcus sp.; strain GC 4551)?
The value was 8 µg/mL (≈ 5.1 µM).

And the “MIC Coagulase Negative Staphylococcus (GC 6257)” value (Staphylococcus sp.; strain GC 6257)?
The value was 2 µg/mL (≈ 1.28 µM).

And the “MIC Streptococcus agalactiae (GC 4564)” value (Streptococcus sp.)?
Its value is 1 µg/mL (≈ 0.638 µM).

And the “MIC Streptococcus pneumoniae (ATCC 6301)” value (Streptococcus sp.)?
The value was 1 µg/mL (≈ 0.638 µM).

What about the “MIC Streptococcus pneumoniae (GC 1894)” value (Streptococcus sp.) of the same molecule?
The value was 0.25 µg/mL (≈ 0.159 µM).

What about the “MIC Streptococcus pneumoniae (GC 4565)” value (Streptococcus sp.) of the same molecule?
The value was 2 µg/mL (≈ 1.28 µM).

What about the “MIC Streptococcus pyogenes (GC 4563)” value (Streptococcus sp.) of the same molecule?
Its value is 0.5 µg/mL (≈ 0.319 µM).

And the “MIC Streptococcus pneumoniae (ATCC 6301)” value (Streptococcus sp.; strain ATCC 6301)?
The value was 1 µg/mL (≈ 0.638 µM).

And the “MIC Streptococcus pneumoniae (GC 1894)” value (Streptococcus sp.; strain GC 1894)?
The value was 0.25 µg/mL (≈ 0.159 µM).

What about the “MIC Streptococcus pyogenes (GC 4563)” value (Streptococcus sp.; strain GC 4563) of the same molecule?
Its value is 0.5 µg/mL (≈ 0.319 µM).

What about the “MIC Streptococcus agalactiae (GC 4564)” value (Streptococcus sp.; strain GC 4564) of the same molecule?
Its value is 1 µg/mL (≈ 0.638 µM).

What about the “MIC Streptococcus pneumoniae (GC 4565)” value (Streptococcus sp.; strain GC 4565) of the same molecule?
The value was 2 µg/mL (≈ 1.28 µM).

What about the median effective dose (ED50), Staphylococcus aureus-SMITH (GC 4543) [1] of the same molecule?
The median effective dose (ED50), Staphylococcus aureus-SMITH (GC 4543) was 2 mg/kg.

What about the “Anatomical Pathology (Day 10), Heart” value [2] of the same molecule?
Its value is 0.

And the “Anatomical Pathology (Day 10), Kidney” value [2]?
The value was “++”.

What about the “MIC Escherichia coli (ATCC 25922)” value (Escherichia coli) of the same molecule?
The value was 128 µg/mL (≈ 81.6 µM).

And the “MIC Escherichia coli (GC 4559)” value (Escherichia coli)?
The value was 128 µg/mL (≈ 81.6 µM).

What about the “MIC Escherichia coli (GC 4560)” value (Escherichia coli) of the same molecule?
Its value is 4 µg/mL (≈ 2.55 µM).

Reference: patent US6914045B2, “Glycopeptide antibiotics” (Wyeth Holdings Corporation, priority 2001, dated 2005)
